Test results: PMC12851581, “Allosteric effects of the coupling cation in melibiose transporter MelB” (eLife, 2026)

Experiments:
[1] = target: T1, melibiose permease MelBSt (WT) (Salmonella enterica, UniProt P30878); test: ITC, […] NaCl, […] °C; [3H]raffinose transport in cells; assay type: binding; parameters: gene melB; WT MelBSt/CHis10
[2] = target: T1, melibiose permease MelBSt (WT); test: ITC, […] NaCl, […] °C; assay type: binding; parameters: gene melB; WT MelBSt/CHis10
[3] = target: T1, melibiose permease MelBSt (WT); test: α-NPG downhill transport in E. coli DW2 cells (p-nitrophenol release); assay type: cell-based; parameters: gene melB; WT MelBSt/CHis10 expressed in E. coli DW2 cells

T1 sequence (P30878 whole entry): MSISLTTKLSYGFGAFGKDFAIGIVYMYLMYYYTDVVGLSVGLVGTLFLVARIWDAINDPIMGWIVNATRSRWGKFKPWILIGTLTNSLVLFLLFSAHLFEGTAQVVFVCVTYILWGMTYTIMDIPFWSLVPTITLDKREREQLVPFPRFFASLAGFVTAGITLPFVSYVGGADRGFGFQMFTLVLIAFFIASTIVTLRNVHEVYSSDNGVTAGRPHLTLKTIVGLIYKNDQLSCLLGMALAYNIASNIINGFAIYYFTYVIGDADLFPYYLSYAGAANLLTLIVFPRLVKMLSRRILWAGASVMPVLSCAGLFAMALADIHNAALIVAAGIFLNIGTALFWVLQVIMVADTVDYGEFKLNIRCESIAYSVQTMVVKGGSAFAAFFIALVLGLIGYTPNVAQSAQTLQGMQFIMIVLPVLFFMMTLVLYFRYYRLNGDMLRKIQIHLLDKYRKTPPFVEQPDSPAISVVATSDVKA

SMILES: OC[C@H]1O[C@H](OC[C@H]2O[C@H](O[C@]3(CO)O[C@H](CO)[C@@H](O)[C@@H]3O)[C@H](O)[C@@H](O)[C@@H]2O)[C@H](O)[C@@H](O)[C@H]1O [raffinose, Raffinose]
- Kd [1]: 3790 ± 530 µM

SMILES: CO[C@H]1O[C@H](CO)[C@H](O)[C@H](O)[C@H]1O [α-MG, methyl α-D-galactoside]
- Kd [2]: 880 ± 40 µM

SMILES: O=[N+]([O-])c1ccc(O[C@H]2O[C@H](CO)[C@H](O)[C@H](O)[C@H]2O)cc1 [α-NPG, p-Nitrophenyl α-D-galactoside]
- α-NPG downhill transport in E. coli DW2 cells (p-nitrophenol release) [3]: both WT MelBSt and D59C uniport mutant mediated the translocation of α-NPG
